{"source": "patent US20240228542A1", "about": "“LYTIC DOMAIN FUSION CONSTRUCTS, CHECKPOINT INHIBITORS, AND METHODS OF MAKING AND USING SAME” (A28 Therapeutics Inc., priority 2020, published 2024)", "key": {"IG10": {"tested_on": "IG10", "test": "Cytotoxicity in IG10 murine ovarian cancer cells (24 h)", "format": "cell-based", "conditions": "IG10, 24 h; read-out: In vitro activity (IC50)", "protocol": "Murine ovarian cancer cell lines (ID8, IG10, IF5, and 2Cl2) were grown in RPMI 1640 media with 10% Fetal Bovine Serum. Cells were typically seeded (3000 cells per well) into 96 well plates and media was replaced after 48 hours of incubation. […] Phor18-LHRH was provided in lyophilized form was dissolved in saline and added to cells. The duration of incubation was 24 h at 37° C. Cell viability was assessed after 24 hours using a luminometric assays (Promega, CellTiter-0Glo 2.0, G9243). Controls contained saline or 0.1% triton as reference for 0 and 100% cell death, respectively.\nData were processed and analyzed using GraphPad Prism version 7.00 for Windows (GraphPad Software, San Diego California). Statistical analysis for significance was determined by a two-tailed Student's T-test. Each study was conducted to achieve an […] of at least 6.\nIn vitro activities were expressed as IC50 values for each cell line, time point and compound tested that were calculated using the Hill equation (Graph Pad Prizm software)."}, "[1]": {"tested_on": "EMT-6 murine mammary carcinoma", "test": "EMT-6 murine mammary carcinoma syngeneic model, tumor growth delay", "format": "in vivo, BALB/c mice", "conditions": "for median TTE: control 16.5 days", "protocol": "The present study consisted of six efficacy groups (n=10) and three sampling groups (n=5) of female BALB/c mice implanted with EMT-6 tumor cells (mean volume: 61-85 mm^3). Dosing was initiated on Day (D) 1 of the study, unless otherwise noted. […] Anti-CTLA-4 was administered i.p. at 100 μg/animal on Day 2 and 50 μg/animal on Day 5 and Day 8.\nGroup 1 mice served as controls and received i.v. saline (vehicle), qod×to end. Group 2 received anti-CTLA-4. Group 3 received Phor 18-LHRH at 0.4 μg/animal qod×8 followed by 20 μg/animal qod to end (starting on Day 17). […] Group 5 received Phor 18-LHRH at 0.4 μg/animal q.o.d.×8 followed by 20 μg/animal qod to end (starting on Day 17) in combination with anti-CTLA-4.\nThe study endpoint was a tumor volume of 2000 mm^3 or 45 days, whichever came first. Tumor measurements were taken twice weekly until D45 with individual animals exiting the study upon reaching the tumor volume endpoint.\nEfficacy was determined from tumor growth delay (TGD), the increase in median time-to-endpoint (TTE) in treated versus control mice, and from comparison of survival curves using logrank analysis. Response was additionally evaluated based on the number of study survivors, partial regression (PR) and complete regression (CR) responses, and logrank significance of differences in survival. Tolerability of the various treatments was assessed by body weight (BW) measurements and frequent observation for clinical symptoms and treatment-related (TR) side effects.\nFour sampling groups consisting of 5 animals each were included in this study: saline controls. […] Animals in these groups were sacrificed on day 17, tumors were excised, formalin fixed and paraffin embedded to obtain H&E stained sections for histological evaluation of the tumors. Tumor samples were collected for analysis and stained with hematoxylin & cosin for pathological evaluation."}, "PD-L1": {"tested_on": "PD-L1", "test": "PD-L1 expression in ID8 and IG10 cells after EP-100 (RT-PCR, Western blot)", "format": "cell-based, murine", "protocol": "To determine the potential role of EP-100 in immune activation, the effect on PD-L1 expression in murine ovarian cancer cells was determined in the presence of EP-100. […] PD-L1 mRNA was increased with treatment with as low as 0.5 μm EP-100 for 4 hours, and PD- L1 protein was increased after 6 hours of treatment."}, "ID8 ovarian cancer cells": {"tested_on": "ID8 ovarian cancer cells", "test": "Cytokine and chemokine secretion by ID8 cells (array, RT-PCR, ELISA)", "format": "cell-based, murine", "protocol": "Cytokine Array—Supernatant from cultured cells was stored at −20° C. for batch analyses to measure cytokines. The mouse cytokine array (R&D Systems, Inc.) was purchased and used to detect the secretion of 111 cytokines in the experiments groups. These Proteome Profiler Arrays were performed according to the manufacturer's protocol.\nThe effect of EP-100 on cytokines and chemokines was analyzed using a proteome profiler murine cytokine array in the CD8^+ T cell activation in ID8 ovarian cancer cells. […] LIF and CXCL10 secretion were decreased after treatment with EP-100 for 4 hours. LDL receptor secretion was increased by EP-100 at 2 hours and 12 hours, while IL1α, CCL20, VEGF, and IL33 were secreted after EP-100 treatment (FIG. 19 B). Among the cytokines, IL33 inhibited tumor growth and modified the tumor microenvironment. Using RT-PCR and ELISA the induction of IL33 through EP-100 was analyzed. IL33 mRNA expression was increased in 30 minutes after EP-100 treatment, and secretion was increased after 2 hours of EP-100 treatment, and this effect continued through 12 hours (FIGS. 19C and 19D). […] To determine the IL33 role in the tumor microenvironment, we tested the IL33 effect on T cell differentiation in vitro. We isolated naïve CD4^+ T cells from mouse […], and further cultured for 5 days in CD3 and CD28, and mouse IL-2 containing media to differentiated CD8^+ T cell. LHRH-R mRNA expression and EP-100-induced cytoic effect was lower in both naïve T cells and CD8^+ T cells than in ID8 cells (FIGS. 20A and 20B)."}, "242": {"tested_on": "242", "test": "Cytotoxicity in cell line 242 (Table 7)", "format": "cell-based, murine", "conditions": "242, 24 h; read-out: In vitro activity (IC50)"}, "[2]": {"conditions": "Phor18-LHRH at 0.4 μg and 20 μg/animal (alone or with anti-CTLA-4)"}, "[3]": {"conditions": "Phor18-LHRH at 10 μg and 60 μg/animal (alone or with anti-CTLA-4)"}}, "data": [{"sequence": "KFAKFAKKFAKFAKKFAKQHWSYGLRPG [Phor18-LHRH]", "values": [{"measurement": "IC50", "setting": "IG10", "result": 1030, "unit": "nM"}, {"measurement": "TGD", "setting": "[1]; [2]", "result": 6, "unit": "%"}, {"measurement": "median TTE", "setting": "[1]; [2]", "result": 17.5, "unit": "days"}, {"measurement": "TGD", "setting": "[1]; [3]", "result": 5, "unit": "%"}, {"measurement": "median TTE", "setting": "[1]; [3]", "result": 17.4, "unit": "days"}, {"measurement": "histological evaluation of tumors", "setting": "[1]; animals sacrificed on day 17", "result": "inflammatory immune cell infiltration and necrosis"}, {"measurement": "lowest concentration increasing PD-L1 mRNA", "setting": "PD-L1; 4 hours", "result": 0.5, "unit": "μm"}, {"measurement": "PD-L1 mRNA and protein levels", "setting": "PD-L1; ID8 and IG10 cells, protein after 6 hours", "result": "both PD-L1 mRNA and protein levels were increased"}, {"measurement": "time to increased IL33 secretion", "setting": "ID8 ovarian cancer cells; ID8 cells, ELISA, continued through 12 hours", "result": 2, "unit": "h"}, {"measurement": "time to increased IL33 mRNA expression", "setting": "ID8 ovarian cancer cells; ID8 cells, RT-PCR", "result": 30, "unit": "min"}, {"measurement": "secretion of cytokines and chemokines (array)", "setting": "ID8 ovarian cancer cells; ID8 cells, LIF, CXCL10, IL1α, CCL20, VEGF, IL33, LDL receptor", "result": "increased secretion of various molecules"}, {"measurement": "IL33 secretion", "setting": "ID8 ovarian cancer cells; in vitro, FIG. 19D", "result": "IL33 secretion was increased by EP-100"}, {"measurement": "IC50", "setting": "242", "result": 1380, "unit": "nM"}]}]}
